One may read the clearance as a measure of how efficiently the substance is removed, as volume per time. The hepatocyte CLint is the rate of metabolic loss divided by the concentration. Broadly, the microsomal CLint is the rate of metabolic loss divided by the concentration. A high value points to rapid turnover. A word on the IC50: it is the midpoint of a concentration-inhibition curve. By fraction unbound is commonly meant free concentration divided by total concentration.

The test system of one series is Caco-2. Also noted: method as in Bavetsias et al., 2012. The following applies: ref Bavetsias et al., 2012, cited from earlier work.
On the set-up of series [1]: method as in Bavetsias et al., 2012. The following applies: mouse and rat; ref Bavetsias et al., 2012; cited from earlier work.
On the set-up of series [2]: method as in Bavetsias et al., 2012. The note with it: rat; ref Bavetsias et al., 2012; cited from earlier work.
The nature of series [3]: CLint in cryopreserved human hepatocyte suspensions. The format is in vitro ADME. The following applies: both sexes, pH 7.4, mixed sex. Here is the method: (§1) Cells were stored in the vapour phase of liquid nitrogen and thawed as per the supplier's instructions (rapid thawing at 37 °C, followed by centrifugation at 50 ×g for 5 min in thawing medium). Hepatocytes were re-suspended in a small volume of incubation medium (WME buffered with HEPES (final concentration 24 mM) adjusted to pH 7.4). Cell density was estimated using a haemocytometer and light microscope and viability determined according to the trypan blue exclusion method; cells were subsequently diluted to the required concentration in incubation medium. […]
(§2) For the purpose of CLint determination, samples were analysed using an Agilent 1290 Infinity ultra high-performance liquid chromatography (UHPLC) system coupled to an Agilent 6520 Quadrupole Time-of-flight mass spectrometer (Agilent Technologies, Stockport, UK). […]
(§3) In vitro data (parent compound LC-MS response) was fitted to a non-linear single exponential model using the software GraphPad Prism (v6.07, GraphPad Software, Inc., La Jolla, USA) to determine the elimination rate constant (k). CLint in hepatocytes and liver microsomes was calculated using Eqs. […]

A short description of series [4]: CLint in cryopreserved mouse hepatocyte suspensions. The format is in vitro ADME. The following applies: ICR/CD-1, cryopreserved hepatocyte suspensions, pH 7.4, female. Here is the method: as §1, §2, §3
The nature of series [5]: CLint in minipig liver microsomes. The format is in vitro ADME. The note with it: Gottingen, 1 mg/ml, NADPH. As for the experimental part:
(§4) All incubations of subcellular fractions and recombinant enzymes were conducted at 37 °C and 800 rpm using a Hamilton Microlab Star liquid handling workstation (Hamilton Robotics (Bonaduz, Switzerland)).
(§5) Prior to initiation of the reaction by the addition of NADPH (final concentration 1 mM), an aliquot was removed from each incubation and quenched in ice cold methanol containing internal standard (referred to as T0). NADPH was subsequently added to this solution for matrix matching. The remaining reaction (with addition of NADPH) was allowed to proceed for 60 min. At 0.5, 5, 15, 30 and 60 min aliquots were sampled and quenched as above. Incubations were conducted in singlicate; control incubations (substituting PBS for NADPH) were conducted simultaneously.
as §2, §3
(Microsomes from liver hold many membrane-bound enzymes, among them those of drug oxidation.)

The subject of series [6] is MV4-11 (human FLT3-ITD positive AML). Also on record: method as in Bavetsias et al., 2012. The note with it: ref Bavetsias et al., 2012; cited from earlier work.
Another series deals with CYP1A2. Also noted: method as in Bavetsias et al., 2012. The note with it: ref Bavetsias et al., 2012; read-out: CYP1A2 inhibition IC50; cited from earlier work.
The next series relates to CYP3A4. Also on record: method as in Bavetsias et al., 2012. The note with it: ref Bavetsias et al., 2012; read-out: CYP3A4 inhibition IC50; cited from earlier work.
The next series concerns CYP2D6. Also on record: method as in Bavetsias et al., 2012. The note with it: ref Bavetsias et al., 2012; read-out: CYP2D6 inhibition IC50; cited from earlier work.
A short description of series [7]: CLint in cryopreserved minipig hepatocyte suspensions. It is filed as in vitro ADME. The note with it: Gottingen. Here is the method:
as §1, §2, §3

For series [8], the system named is histone H-3 and STAT5 phosphorylation. Also noted: method as in Bavetsias et al., 2012. The following applies: p.o. 50 and 100 mg/kg b.i.d., 4-day mouse PK/PD study; ref Bavetsias et al., 2012; cited from earlier work.
Series [9] is described as follows: Protein binding in HLM (Rapid Equilibrium Dialysis). The note with it: human, liver microsomes, HLM 1 mg/ml, dialysis 4 h at 37 °C, read-out: fumic (fraction unbound in microsomes). The format is in vitro ADME. Here is the method: Samples were removed, matrix matched and quenched with methanol containing internal standard; further processing is as described in Section 2.6.
The fraction unbound (fu) in HLM/rCYP was calculated using Eq. (5).(5) fu=1/1+1/PARreceiver/PARdonor−1 where PAR = Peak Area Ratio of analyte/internal standard.

Series [10] is described as follows: CLint in dog liver microsomes. The note with it: Beagle, 1 mg/ml, NADPH. It is filed as in vitro ADME. As for the experimental part:
as §4, §5, §2, §3

The nature of series [11]: CLint in rat liver microsomes. The format is in vitro ADME. The following applies: Sprague Dawley, female, 1 mg/ml, NADPH. Here is the method: as §4, §5, §2, §3
The test system of the next series is hERG. Also on record: method as in Bavetsias et al., 2012. The note with it: ref Bavetsias et al., 2012; read-out: hERG blockade IC50; cited from earlier work. A general note: hERG is a cardiac potassium channel; its block is linked to QT prolongation.

Regarding `Cc1nn(C)cc1-c1nc2c(N3CCN(Cc4ccc(Cl)cc4)CC3)c(Cl)cnc2[nH]1` [CCT241736, 6-Chloro-7-(4-(4-chlorobenzyl)piperazin-1-yl)-2-(1,3-dimethyl-1Hpyrazol-4-yl)-3H-imidazo[4,5-b] pyridine], in the series on Caco-2 (Caco-2), the efflux result is given as “no evidence of efflux”. Besides, the Caco-2 permeability with Caco-2 was […]. Also, in series [1], the oral bioavailability is […]. In addition, the clearance in series [2] was […]. Moreover, the hepatocyte CLint at 1 μM was […] in series [3]; […] in [4]; […] in [7] (pH 7.4, female); […] in series [7] (pH 7.4, male). Further, the microsomal CLint at 1 μM was determined as […] in series [5] (female); […] in [5] (male); […] in [10] (female); […] in [10] (male); […] in series [11]. The anti-proliferative activity entry in series [6] is on record as “anti-proliferative activity”. For the same compound, the IC50 is […] in the series with CYP1A2, […] in the series with CYP3A4, […] in the series on CYP2D6 and […] in the series on hERG. The “biomarker modulation (histone H-3 and STAT5 phosphorylation)” value in series [8] is on record as “biomarker modulation”. In addition, the fraction unbound at 4 h, 1 μM in series [9] is […].
